Results: patent publication US7754709B2 (Solvay Pharmaceuticals BV, priority 2003, dated 2010)

What was measured:
Type in all cases: cell-based
[1] = biological target: T1, 17β-hydroxysteroid dehydrogenase type 3 (Homo sapiens, UniProt P37058); assay: Inhibition of 17β-HSD type 3 in MCF-7 cells stably expressing the isoenzyme (HPLC, tritium labeled androstenedione); conditions: 2 nM androstenedione, read-out: % Inhibition of the 17β-HSD enzyme type 3 (HSD3); for inhibition at 1 µM: MCF7, 1 μM compound; for inhibition at 10 µM: MCF7, 10 μM compound
T1 construct: expressed in transfected cells; host or cells: MCF-7
T1 sequence (P37058 1-310): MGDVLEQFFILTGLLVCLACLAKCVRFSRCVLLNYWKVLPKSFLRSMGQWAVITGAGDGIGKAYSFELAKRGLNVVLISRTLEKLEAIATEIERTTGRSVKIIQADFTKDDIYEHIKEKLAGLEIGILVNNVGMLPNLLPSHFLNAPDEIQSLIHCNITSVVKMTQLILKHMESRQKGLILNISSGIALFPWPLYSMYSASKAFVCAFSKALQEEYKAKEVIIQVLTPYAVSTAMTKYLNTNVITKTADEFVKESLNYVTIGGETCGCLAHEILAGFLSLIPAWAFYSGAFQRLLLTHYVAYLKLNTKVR
Summary of the method: (§1)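 MCF-7 lines each stably expressing one isoenzyme incubated in growth medium with compound (two concentrations) and 2 nM tritiated substrate: estrone (type 1), estradiol (type 2), androstenedione (type 3). TCA-stopped; conversion by HPLC with flow scintillation, inhibition relative to compound-free control.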

[2] = biological target: T2, 17β-hydroxysteroid dehydrogenase type 2 (Homo sapiens, UniProt P37059); assay: Inhibition of 17β-HSD type 2 in MCF-7 cells stably expressing the isoenzyme (HPLC, tritium labeled estradiol); conditions: 2 nM estradiol, read-out: % Inhibition of the 17β-HSD enzyme type 2 (HSD2); for inhibition at 1 µM: MCF7, 1 μM compound; for inhibition at 10 µM: MCF7, 10 μM compound
T2 construct: expressed in transfected cells; host or cells: MCF-7
T2 sequence (P37059 1-387): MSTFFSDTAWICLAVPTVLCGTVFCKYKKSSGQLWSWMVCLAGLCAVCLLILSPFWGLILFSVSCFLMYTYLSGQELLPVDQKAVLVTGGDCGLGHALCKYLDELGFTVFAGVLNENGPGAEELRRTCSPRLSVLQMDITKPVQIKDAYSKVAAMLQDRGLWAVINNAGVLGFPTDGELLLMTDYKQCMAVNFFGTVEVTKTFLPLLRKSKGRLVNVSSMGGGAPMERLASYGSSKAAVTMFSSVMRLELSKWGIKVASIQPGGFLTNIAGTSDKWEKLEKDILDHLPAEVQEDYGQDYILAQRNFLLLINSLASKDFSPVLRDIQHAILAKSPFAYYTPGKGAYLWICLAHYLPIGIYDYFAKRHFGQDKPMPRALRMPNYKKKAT
Summary of the method: as §1

[3] = biological target: T3, 17β-hydroxysteroid dehydrogenase type 1 (Homo sapiens, UniProt P14061); assay: Inhibition of 17β-HSD type 1 in MCF-7 cells stably expressing the isoenzyme (HPLC, tritium labeled estrone); conditions: 2 nM estrone, read-out: % Inhibition of the 17β-HSD enzyme type 1 (HSD1); for inhibition at 1 µM: MCF7, 1 μM compound; for inhibition at 10 µM: MCF7, 10 μM compound
T3 construct: expressed in transfected cells; host or cells: MCF-7
T3 sequence (P14061 1-328): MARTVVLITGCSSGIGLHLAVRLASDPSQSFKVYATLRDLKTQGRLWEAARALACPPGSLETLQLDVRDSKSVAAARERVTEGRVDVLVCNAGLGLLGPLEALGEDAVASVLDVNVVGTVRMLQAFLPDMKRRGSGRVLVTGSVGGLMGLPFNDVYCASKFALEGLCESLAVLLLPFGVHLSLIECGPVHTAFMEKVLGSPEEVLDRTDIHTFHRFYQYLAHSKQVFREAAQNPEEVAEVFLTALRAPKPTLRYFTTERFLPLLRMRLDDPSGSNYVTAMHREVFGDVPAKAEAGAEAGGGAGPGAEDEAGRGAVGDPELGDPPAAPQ
Summary of the method: as §1

inhibition at 1 µM [1] [%]	inhibition at 10 µM [1] [%]	inhibition at 1 µM [2] [%]	inhibition at 10 µM [2] [%]	inhibition at 1 µM [3] [%]	inhibition at 10 µM [3] [%]	Structure (SMILES)
11.1	31.2	12.8	24.8	23.1	49	O=CC1=C([S+]([O-])c2ccccc2)c2sc3nc4n(c(=O)c3c2CC1)CCCCC4 (stereo not drawn) [Compound 30, 1,2,7,8,9,10,11,13-Octahydro-13-oxo-4-(phenylsulfinyl)-[1]benzothieno[2′,3′: 4,5]-pyrimido-[1,2-a]azepine-3-carbaldehyde]
-6.4	-3.9	-0.2	9.3	2.1	6.8	O=C(O)C1=C(Cl)c2sc3nc4n(c(=O)c3c2CC1)CCCCC4 [Compound 31, 4-Chloro-1,2,7,8,9, 10,11,13-octahydro-13-oxo-[1]benzothieno[2′,3′: 4,5]pyrimido[1,2-a]azepine-3-carboxylic acid]
16.2	23.4	15.8	27.7	4.8	22.4	O=c1c2c3c(sc2nc2n1CCC(CO)CC2)CCCC3 (stereo not drawn) [Compound 35, 9-(Hydroxymethyl)-2,3,4,7,8,9,10,11-octahydro-[1]benzothieno[2′,3′: 4,5]pyrimido[1,2-a]azepin-13(1H)-one]
